According to EP0007672A1, “Isocyanoalkenes, process and useful intermediates for their preparation, pharmaceutical and fungicidal preparations containing those isocyanoalkenes and the use of the fungicidal preparations in agriculture” (GIST-BROCADES N.V., priority 1978, dated 1980):
Values after ≈ are worked out from the molar mass of the structure shown. Read-outs that look alike come from different tables or passages of the source.

Legend:
Assay in all cases: MIC (Minimum Inhibitory Concentration)
Type in all cases: cell-based
[1] = tested on: Trichophyton tonsurans; conditions: read-out: MIC values
From the text: (§1) In addition they may be used for combatting plant diseases, in particular as fungicides. A list of MIC (Minimum Inhibitory Concentration) values for a number of microorganisms is listed herebelow. The figures in the column headings refer to the compounds prepared according to the experimental examples in comparison with the spectrum of 1-[2-(2,4-dichlorophenyl)-2-{(2,4-dichlorophenyl)-methoxy} -ethyl7-1H-imidazole (better known under the name of miconazole, c.f. Merck Index 9th Ed. page 6047) or natamycin (pimaricin, c.f. Merck Index 9th Ed. page 7233).

[2] = tested on: Streptococcus haemolyticus; conditions: read-out: MIC values
From the text: as §1

[3] = tested on: Trichophyton rubrum
From the text: as §1

[4] = tested on: Trichophyton quickeaneum; conditions: read-out: MIC values
From the text: as §1

[5] = tested on: Candida albicans
From the text: as §1

[6] = tested on: Trichophyton mentagrophytus
From the text: as §1

[7] = tested on: Trichophyton violoceum; conditions: read-out: MIC values
From the text: as §1

[8] = tested on: Trichophyton schoenleinii; conditions: read-out: MIC values
From the text: as §1

[9] = tested on: Pasteurella multocida; conditions: read-out: MIC values
From the text: as §1

[10] = tested on: Trichophyton equinum
From the text: as §1

[11] = tested on: Trichophyton verrucosum
From the text: as §1

[12] = read-out: MIC values, Trichophyton rubrum 218-65
[13] = read-out: MIC values, Trichophyton rubrum 494-62
[14] = read-out: MIC values, Candida albicans A 7
[15] = read-out: MIC values, Candida albicans A 3140
[16] = read-out: MIC values, Candida albicans A 3141
[17] = read-out: MIC values, Candida albicans A 3142
[18] = read-out: MIC values, Candida albicans A 3143
[19] = read-out: MIC values, Candida albicans A 3144
[20] = read-out: MIC values, Candida albicans A 3145
[21] = read-out: MIC values, Candida albicans A 3165
[22] = read-out: MIC values, Candida albicans A 3166
[23] = read-out: MIC values, Candida albicans A 3167
[24] = read-out: MIC values, Candida albicans A 3168
[25] = read-out: MIC values, Candida albicans A 3169
[26] = read-out: MIC values, Candida albicans A 3171
[27] = read-out: MIC values, Candida albicans A 3184
[28] = read-out: MIC values, Candida albicans A 3190
[29] = read-out: MIC values, Candida albicans A 3191
[30] = read-out: MIC values, Candida albicans A 3192
[31] = read-out: MIC values, Candida albicans A 3194
[32] = read-out: MIC values, Candida albicans A 3196
[33] = read-out: MIC values, Trichophyton mentagrophytus 367-68
[34] = read-out: MIC values, Trichophyton mentagrophytus 421-67
[35] = read-out: MIC values, Trichophyton mentagrophytus A 3252
[36] = read-out: MIC values, Trichophyton mentagrophytus R 177
[37] = read-out: MIC values, Trichophyton mentagrophytus R 178
[38] = read-out: MIC values, Trichophyton mentagrophytus RRL 305
[39] = read-out: MIC values, Trichophyton equinum 182-76
[40] = read-out: MIC values, Trichophyton equinum 856-71

[C-]#[N+]C(=CCCC)S(=O)(=O)c1ccc(C)cc1 [Example 24, 1-isocyano-1-(4-toluenesulphonyl)-1-pentene]
MIC ([1]; Trichophyton tonsurans 561-50): 25 µg/mL (≈ 100 µM)
MIC ([2]; Streptococcus haemolyticus A 1088): 100 µg/mL (≈ 401 µM)
MIC ([3]; Trichophyton rubrum 218-65, read-out: MIC values): 25 µg/mL (≈ 100 µM)
MIC ([3]; Trichophyton rubrum 494-62, read-out: MIC values): 50 µg/mL (≈ 201 µM)
MIC ([3]; Trichophyton rubrum A 810, read-out: MIC values): 25 µg/mL (≈ 100 µM)
MIC ([4]; Trichophyton quickeaneum A 2040): 100 µg/mL (≈ 401 µM)
MIC ([5]; Candida albicans A 7, read-out: MIC values): 25 µg/mL (≈ 100 µM)
MIC ([5]; Candida albicans A 3140, read-out: MIC values): 25 µg/mL (≈ 100 µM)
MIC ([5]; Candida albicans A 3141, read-out: MIC values): 25 µg/mL (≈ 100 µM)
MIC ([5]; Candida albicans A 3142, read-out: MIC values): 3 µg/mL (≈ 12 µM)
MIC ([5]; Candida albicans A 3143, read-out: MIC values): 12.5 µg/mL (≈ 50.1 µM)
MIC ([5]; Candida albicans A 3144, read-out: MIC values): 12.5 µg/mL (≈ 50.1 µM)
MIC ([5]; Candida albicans A 3145, read-out: MIC values): 12.5 µg/mL (≈ 50.1 µM)
MIC ([5]; Candida albicans A 3165, read-out: MIC values): 25 µg/mL (≈ 100 µM)
MIC ([5]; Candida albicans A 3166, read-out: MIC values): 50 µg/mL (≈ 201 µM)
MIC ([5]; Candida albicans A 3167, read-out: MIC values): 50 µg/mL (≈ 201 µM)
MIC ([5]; Candida albicans A 3168, read-out: MIC values): 50 µg/mL (≈ 201 µM)
MIC ([5]; Candida albicans A 3169, read-out: MIC values): 25 µg/mL (≈ 100 µM)
MIC ([5]; Candida albicans A 3171, read-out: MIC values): 25 µg/mL (≈ 100 µM)
MIC ([5]; Candida albicans A 3184, read-out: MIC values): 25 µg/mL (≈ 100 µM)
MIC ([5]; Candida albicans A 3190, read-out: MIC values): 25 µg/mL (≈ 100 µM)
MIC ([5]; Candida albicans A 3191, read-out: MIC values): 25 µg/mL (≈ 100 µM)
MIC ([5]; Candida albicans A 3192, read-out: MIC values): 25 µg/mL (≈ 100 µM)
MIC ([5]; Candida albicans A 3194, read-out: MIC values): 25 µg/mL (≈ 100 µM)
MIC ([5]; Candida albicans A 3196, read-out: MIC values): 25 µg/mL (≈ 100 µM)
MIC ([6]; Trichophyton mentagrophytus 367-68, read-out: MIC values): 100 µg/mL (≈ 401 µM)
MIC ([6]; Trichophyton mentagrophytus 421-67, read-out: MIC values): 50 µg/mL (≈ 201 µM)
MIC ([6]; Trichophyton mentagrophytus A 3252, read-out: MIC values): 25 µg/mL (≈ 100 µM)
MIC ([6]; Trichophyton mentagrophytus R 177, read-out: MIC values): 25 µg/mL (≈ 100 µM)
MIC ([6]; Trichophyton mentagrophytus R 178, read-out: MIC values): 25 µg/mL (≈ 100 µM)
MIC ([6]; Trichophyton mentagrophytus RRL 305, read-out: MIC values): 50 µg/mL (≈ 201 µM)
MIC ([7]; Trichophyton violoceum 442-62): 25 µg/mL (≈ 100 µM)
MIC ([8]; Trichophyton schoenleinii 435-63): 25 µg/mL (≈ 100 µM)
MIC ([9]; Pasteurella multocida A 723): 50 µg/mL (≈ 201 µM)
MIC ([10]; Trichophyton equinum 182-76, read-out: MIC values): 50 µg/mL (≈ 201 µM)
MIC ([10]; Trichophyton equinum 856-71, read-out: MIC values): 50 µg/mL (≈ 201 µM)

[C-]#[N+]C(=C1CCCCC1)S(=O)(=O)c1ccccc1 [Example 25, a-cyclohexylidene-a-benzenesulphonylmethyl-isocyanide]
MIC ([1]; Trichophyton tonsurans): 0.2 µg/mL (≈ 0.765 µM)
MIC ([2]; Streptococcus): 25 µg/mL (≈ 95.7 µM)
MIC [3, 12]: 0.4 µg/mL (≈ 1.53 µM)
MIC [3, 13]: 6 µg/mL (≈ 23 µM)
MIC ([3]; read-out: MIC values, Trichophyton rubrum A 810): 0.4 µg/mL (≈ 1.53 µM)
MIC ([4]; Trichophyton): 3 µg/mL (≈ 11.5 µM)
MIC [5, 14]: 1.5 µg/mL (≈ 5.74 µM)
MIC [5, 15]: 1.5 µg/mL (≈ 5.74 µM)
MIC [5, 16]: 1.5 µg/mL (≈ 5.74 µM)
MIC [5, 17]: 1.5 µg/mL (≈ 5.74 µM)
MIC [5, 18]: 1.5 µg/mL (≈ 5.74 µM)
MIC [5, 19]: 3 µg/mL (≈ 11.5 µM)
MIC [5, 20]: 3 µg/mL (≈ 11.5 µM)
MIC [5, 21]: 3 µg/mL (≈ 11.5 µM)
MIC [5, 22]: 1.5 µg/mL (≈ 5.74 µM)
MIC [5, 23]: 3 µg/mL (≈ 11.5 µM)
MIC [5, 24]: 6 µg/mL (≈ 23 µM)
MIC [5, 25]: 1.5 µg/mL (≈ 5.74 µM)
MIC [5, 26]: 3 µg/mL (≈ 11.5 µM)
MIC [5, 27]: 1.5 µg/mL (≈ 5.74 µM)
MIC [5, 28]: 3 µg/mL (≈ 11.5 µM)
MIC [5, 29]: 6 µg/mL (≈ 23 µM)
MIC [5, 30]: 1.5 µg/mL (≈ 5.74 µM)
MIC [5, 31]: 3 µg/mL (≈ 11.5 µM)
MIC [5, 32]: 3 µg/mL (≈ 11.5 µM)
MIC [6, 33]: 1.5 µg/mL (≈ 5.74 µM)
MIC [6, 34]: 1.5 µg/mL (≈ 5.74 µM)
MIC [6, 35]: 3 µg/mL (≈ 11.5 µM)
MIC [6, 36]: 3 µg/mL (≈ 11.5 µM)
MIC [6, 37]: 3 µg/mL (≈ 11.5 µM)
MIC [6, 38]: 3 µg/mL (≈ 11.5 µM)
MIC ([7]; Trichophyton): 3 µg/mL (≈ 11.5 µM)
MIC ([8]; Trichophyton schoenleinii): 0.8 µg/mL (≈ 3.06 µM)
MIC ([9]; Pasteurella multocida): 3 µg/mL (≈ 11.5 µM)
MIC [10, 39]: 6 µg/mL (≈ 23 µM)
MIC [10, 40]: 12.5 µg/mL (≈ 47.8 µM)

[C-]#[N+]C(C1=CCCCCC1)S(=O)(=O)c1ccc(C)cc1 (stereo not shown) [Example 18b, a-(cyclohepten-1-yl)-a-(4-toluenesulphonyl)-methylisocyanide]
MIC ([2]; Streptococcus): 25 µg/mL (≈ 86.4 µM)
MIC ([11]; read-out: MIC values, Trichophyton verrucosum 134-66): 3 µg/mL (≈ 10.4 µM)
MIC ([11]; read-out: MIC values, Trichophyton verrucosum A 2922): 12.5 µg/mL (≈ 43.2 µM)
MIC [3, 12]: 100 µg/mL (≈ 346 µM)
MIC [3, 13]: > 100 µg/mL
MIC ([4]; Trichophyton): 25 µg/mL (≈ 86.4 µM)
MIC [5, 14]: 6 µg/mL (≈ 20.7 µM)
MIC [5, 15]: 6 µg/mL (≈ 20.7 µM)
MIC [5, 16]: 12.5 µg/mL (≈ 43.2 µM)
MIC [5, 17]: 12.5 µg/mL (≈ 43.2 µM)
MIC [5, 18]: 12.5 µg/mL (≈ 43.2 µM)
MIC [5, 19]: 12.5 µg/mL (≈ 43.2 µM)
MIC [5, 20]: 6 µg/mL (≈ 20.7 µM)
MIC [5, 21]: 12.5 µg/mL (≈ 43.2 µM)
MIC [5, 22]: 12.5 µg/mL (≈ 43.2 µM)
MIC [5, 23]: 12.5 µg/mL (≈ 43.2 µM)
MIC [5, 24]: 6 µg/mL (≈ 20.7 µM)
MIC [5, 25]: 12.5 µg/mL (≈ 43.2 µM)
MIC [5, 26]: 12.5 µg/mL (≈ 43.2 µM)
MIC [5, 27]: 12.5 µg/mL (≈ 43.2 µM)
MIC [5, 28]: 12.5 µg/mL (≈ 43.2 µM)
MIC [5, 29]: 12.5 µg/mL (≈ 43.2 µM)
MIC [5, 30]: 12.5 µg/mL (≈ 43.2 µM)
MIC [5, 31]: 25 µg/mL (≈ 86.4 µM)
MIC [5, 32]: 12.5 µg/mL (≈ 43.2 µM)
MIC [6, 33]: 25 µg/mL (≈ 86.4 µM)
MIC [6, 34]: > 100 µg/mL
MIC [6, 35]: > 100 µg/mL
MIC [6, 36]: > 100 µg/mL
MIC [6, 37]: > 100 µg/mL
MIC [6, 38]: > 100 µg/mL
MIC ([7]; Trichophyton): 6 µg/mL (≈ 20.7 µM)
MIC ([8]; Trichophyton schoenleinii): 6 µg/mL (≈ 20.7 µM)
MIC ([9]; Pasteurella multocida): 50 µg/mL (≈ 173 µM)
MIC [10, 39]: > 100 µg/mL
MIC ([10]; read-out: MIC values, Trichophyton equinum 441-51): < 0.05 µg/mL
MIC [10, 40]: 100 µg/mL (≈ 346 µM)

[C-]#[N+]C(=C1CCCCCC1)S(=O)(=O)c1ccc(C)cc1 [Example 18a, a-cycloheptylidene-a-(4-toluenesulphonyl)-methylisocyanide]
MIC ([2]; Streptococcus): 10 µg/mL (≈ 34.6 µM)
MIC [5, 14]: 1.5 µg/mL (≈ 5.18 µM)
MIC [5, 15]: 1.5 µg/mL (≈ 5.18 µM)
MIC [5, 16]: 3 µg/mL (≈ 10.4 µM)
MIC [5, 17]: 1.5 µg/mL (≈ 5.18 µM)
MIC [5, 18]: 1.5 µg/mL (≈ 5.18 µM)
MIC [5, 19]: 3 µg/mL (≈ 10.4 µM)
MIC [5, 20]: 3 µg/mL (≈ 10.4 µM)
MIC [5, 21]: 1.5 µg/mL (≈ 5.18 µM)
MIC [5, 22]: 3 µg/mL (≈ 10.4 µM)
MIC [5, 23]: 0.75 µg/mL (≈ 2.59 µM)
MIC [5, 24]: 0.75 µg/mL (≈ 2.59 µM)
MIC [5, 25]: 3 µg/mL (≈ 10.4 µM)
MIC [5, 26]: 1.5 µg/mL (≈ 5.18 µM)
MIC [5, 27]: 3 µg/mL (≈ 10.4 µM)
MIC [5, 28]: 3 µg/mL (≈ 10.4 µM)
MIC [5, 29]: 3 µg/mL (≈ 10.4 µM)
MIC [5, 30]: 1.5 µg/mL (≈ 5.18 µM)
MIC [5, 31]: 1.5 µg/mL (≈ 5.18 µM)
MIC [5, 32]: 3 µg/mL (≈ 10.4 µM)
MIC ([9]; Pasteurella multocida): 20 µg/mL (≈ 69.1 µM)
